pIC50: −log10 of the molar value. Counter-ions that a name gives are not always drawn. Like-named read-outs stand apart in the source and are kept apart here.
Tested on: human primary T-cells, IL-2 stimulated proliferation (JAK-1 and JAK-3 dependent; reported as JAK3 activity)
Assay: Human primary T-cell proliferation stimulated by IL-2 (Example 3)
Type: cell-based
Conditions: tested under conditions described in Example 3 (IL-2 stimulated human primary T-cell proliferation), read-out: ability to inhibit JAK3 activity, IC50 range (Table V)
Method in brief: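 Peripheral-blood human T-cells pre-activated via TCR/CD28, IL-2-starved overnight, then cultured 72 h at 37 °C with compound in Yssel's medium containing IL-2 (80 U/mL in cell suspension). Proliferation read as viable-cell ATP by CellTiter-Glo luminescence; reduction versus control taken as JAK pathway inhibition.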

In the case of `Cc1cnc(Nc2cccc(S(=O)(=O)NC(C)(C)C)c2)nc1Nc1ccc2oc(=O)[nH]c2c1` [Compound I-25, N4-(benzo[d]oxazol-2(3H)-on-5-yl)-N2-((3-tert-butylaminosulfonyl)phenyl)-5-methylpyrimidine-2,4-diamine], the pIC50 was over 6.30.

Work on `COc1cc(Nc2ncc(C)c(Nc3ccc4oc(=O)[nH]c4c3)n2)cnc1OC` [II-140, N2-(2,3-dimethoxypyridin-5-yl)-5-methyl-N4-(2-oxo-2,3-dihydro-1,3-benzoxazol-5-yl)-2,4-pyrimidinediamine] yielded a pIC50 (Homo sapiens, T-cell) of over 6.30.

With `Cc1cnc(Nc2ccc(N3CCOC[C@@H]3C)nc2)nc1Nc1ccc2oc(=O)[nH]c2c1` [II-134, 5-methyl-N2-[2-(3 S-methylmorpholino)pyridin-5-yl]-N4-(2-oxo-2,3-dihydro-1,3-benzoxazol-5-yl)-2,4-pyrimidinediamine] the pIC50 was over 6.30.

`CNC(=O)COc1cccc(Nc2ncc(C)c(Nc3ccc4oc(=O)[nH]c4c3)n2)c1C` [Compound I-325, 5-methyl-N2-(2-methyl-3-methylaminocarbonylmethoxy)phenyl-N4-(2-oxo-2,3-dihydro-1,3-benzoxazol-5-yl)-2,4-pyrimidinediamine] gave a pIC50 of 5.30 to 6.30.

For `O=c1[nH]c2cc(Nc3nc(Nc4cccc(OC(F)(F)F)c4)ncc3F)ccc2o1` [Compound I-107, N4-(benzoxazolin-2-on-5-yl)-N2-(3-trifluoromethoxyphenyl)-5-fluoropyrimidine-2,4-diamine trifluoroacetate salt], the pIC50 (Homo sapiens, T-cell) was 5.30 to 6.30.

With `Cc1cnc(Nc2ccc(N3CCN(C(C)C)CC3)nc2)nc1Nc1ccc2oc(=O)[nH]c2c1` [II-136, N2-[2-(4-isopropylpiperazino)pyridin-5-yl]-5-methyl-N4-(2-oxo-2,3-dihydro-1,3-benzoxazol-5-yl)-2,4-pyrimidinediamine] the pIC50 (Homo sapiens, T-cell) was over 6.30.

For `Cc1cnc(Nc2cc(C)c(F)c(C)c2)nc1Nc1ccc2oc(=O)[nH]c2c1` [Compound I-374, N2-(3,5-dimethyl-4-fluoro)phenyl-5-methyl-N4-(2-oxo-2,3-dihydro-1,3-benzoxazol-5-yl)-2,4-pyrimidinediamine], the pIC50 was over 6.30.

`Cc1cnc(Nc2cc(C(C)(C)C)cc(C(C)(C)C)c2)nc1Nc1ccc2oc(=O)[nH]c2c1` [Compound I-355, N2-(3,5-di-tert-butyl)phenyl-5-methyl-N4-(2-oxo-2,3-dihydro-1,3-benzoxazol-5-yl)-2,4-pyrimidinediamine] gave a pIC50 of 5.30 to 6.30.

`Cc1cnc(Nc2cnc(C3NCC4CCCCC43)c(Cl)c2)nc1Nc1ccc2oc(=O)[nH]c2c1` (stereo not shown) [II-122, N2-[3-chloro-2-(octahydroisoindol-1-yl)pyridin-5-yl]-5-methyl-N4-(2-oxo-2,3-dihydro-1,3-benzoxazol-5-yl)-2,4-pyrimidinediamine] gave a pIC50 (Homo sapiens, T-cell) of over 6.30.

Compound `Cc1cnc(Nc2ccc3[nH]ncc3c2)nc1Nc1ccc2oc(=O)[nH]c2c1` [IV-6, N4-(benzo[d]oxazol-2(3H)-on-5-yl)-N2-(1H-indazol-5-yl)-5-methylpyrimidine-2,4-diamine] has a pIC50 (Homo sapiens, T-cell) of over 6.30.

`Cc1cnc(Nc2cccc(Cl)c2)nc1Nc1ccc2oc(=O)[nH]c2c1` [Compound I-173, 5-[2-(3-Chloro-phenylamino)-5-methyl-pyrimidin-4-ylamino]-3H-benzooxazol-2-one] was tested, and the pIC50 (Homo sapiens, T-cell) was over 6.30.

Work on `CS(=O)(=O)c1ccc(Nc2ncc(F)c(Nc3ccc4[nH]c(=O)[nH]c4c3)n2)cc1` [Compound I-23, N4-(benzimidazolin-2-on-5-yl)-N2-(4-methylsulfonyl)phenyl-5-fluoropyrimidine-2,4-diamine] yielded a pIC50 of under 5.00.

`Cc1cnc(Nc2ccc3c(c2)OC2(CCCCC2)O3)nc1Nc1ccc2oc(=O)[nH]c2c1` [IV-39, N2-[spiro(2,1′-cyclohexan)-1,3-benzodioxol-5-yl]-5-methyl-N4-(2-oxo-2,3-dihydro-1,3-benzoxazol-5-yl)-2,4-pyrimidinediamine] showed a pIC50 of over 6.30.

With `Cc1cnc(Nc2ccc(C(C)NC(C)C)cc2)nc1Nc1ccc2oc(=O)[nH]c2c1` (stereo not shown) [Compound I-207, 5-(2-(4-(1-(isopropylamino)ethyl)phenylamino)-5-methylpyrimidin-4-ylamino)benzo[d]oxazol-2(3H)-one] the pIC50 (Homo sapiens, T-cell) was over 6.30.

With `Cc1cnc(Nc2ccc(OC(C)(C)C#N)cc2)nc1Nc1ccc2oc(=O)[nH]c2c1` [Compound I-334, N2-[4-(1-cyano-1-methyl)ethoxy]phenyl-5-methyl-N4-(2-oxo-2,3-dihydro-1,3-benzoxazol-5-yl)-2,4-pyrimidinediamine] the pIC50 was over 6.30.

In the case of `Cc1cnc(Nc2ccc(N3CCOCC3)nc2)nc1Nc1ccc2oc(=O)[nH]c2c1` [II-17, N4-(benzo[d]oxazol-2(3H)-on-5-yl)-N2-((2-morpholinyl)pyridin-5-yl)-5-methylpyrimidine-2,4-diamine], the pIC50 was over 6.30.

For `Cc1cnc(Nc2cccc(OC(C)(C)C(N)=O)c2)nc1Nc1ccc2oc(=O)[nH]c2c1` [Compound I-335, N2-[3-(1-aminocarbonyl-1-methyl)ethoxy]phenyl-5-methyl-N4-(2-oxo-2,3-dihydro-1,3-benzoxazol-5-yl)-2,4-pyrimidinediamine], the pIC50 was over 6.30.

`Cc1cnc(Nc2ccc(N3CCOCC3)c(C#N)c2)nc1Nc1ccc2oc(=O)[nH]c2c1` [Compound I-327, N2-(3-cyano-4-morpholino)phenyl-5-methyl-N4-(2-oxo-2,3-dihydro-1,3-benzoxazol-5-yl)-2,4-pyrimidinediamine] was tested, and the pIC50 was over 6.30.

With `Cc1cnc(Nc2ccc(-n3cccc3)c(C#N)c2)nc1Nc1ccc2oc(=O)[nH]c2c1` [Compound I-295, N2-[3-cyano-4-(1H-pyrrol-1-yl)]phenyl-5-methyl-N4-(2-oxo-2,3-dihydro-1,3-benzoxazol-5-yl)-2,4-pyrimidinediamine] the pIC50 was over 6.30.

For `Cc1cnc(Nc2ccc(C)c(C(F)(F)F)c2F)nc1Nc1ccc2oc(=O)[nH]c2c1` [Compound I-532, 5-(2-(2-fluoro-4-methyl-3-(trifluoromethyl)phenylamino)-5-methylpyrimidin-4-ylamino)benzo[d]oxazol-2(3H)-one], the pIC50 (Homo sapiens, T-cell) was over 6.30.

Compound `Cc1cnc(Nc2cc(F)c(OC(C)(C)C(N)=O)c(F)c2)nc1Nc1ccc2oc(=O)[nH]c2c1` [Compound I-395, N2-[4-(1-aminocarbonyl-1-methyl)ethoxy-3,5-difluoro]phenyl-5-methyl-N4-(2-oxo-2,3-dihydro-1,3-benzoxazol-5-yl)-2,4-pyrimidinediamine] has a pIC50 of over 6.30.

Work on `Cc1cnc(Nc2ccc3c(c2)NC(=O)CC3)nc1Nc1ccc2oc(=O)[nH]c2c1` [IV-24, 5-(5-methyl-2-(2-oxo-1,2,3,4-tetrahydroquinolin-7-ylamino)pyrimidin-4-ylamino)benzo[d]oxazol-2(3H)-one] yielded a pIC50 (Homo sapiens, T-cell) of over 6.30.

With `CS(=O)(=O)Nc1cc(Nc2ncc(F)c(Nc3ccc4oc(=O)[nH]c4c3)n2)ccc1F` [Compound I-90, N2-((4-fluoro-3-methylsulfonylamino)phenyl)-N4-(2-oxo-2,3-dihydrobenzo[d]oxazol-5-yl)-5-fluoropyrimidine-2,4-diamine] the pIC50 was over 6.30.

In the case of `Cc1cnc(Nc2ccccc2)nc1Nc1ccc2oc(=O)[nH]c2c1` [Compound I-174, 5-(5-Methyl-2-phenylamino-pyrimidin-4-ylamino)-3H-benzooxazol-2-one], the pIC50 (Homo sapiens, T-cell) was over 6.30.

`Cc1cnc(Nc2ccc(OCCO)nc2)nc1Nc1ccc2oc(=O)[nH]c2c1` [II-142, N2-[2-(2-hydroxy)ethoxypyridin-5-yl]-5-methyl-N4-(2-oxo-2,3-dihydro-1,3-benzoxazol-5-yl)-2,4-pyrimidinediamine] was tested, and the pIC50 was over 6.30.

With `CCN(CC)CCOc1ccc(Nc2ncc(C)c(Nc3ccc4oc(=O)[nH]c4c3)n2)cc1` [Compound I-449, 5-{2-[4-(2-Diethylamino-ethoxy)-phenylamino]-5-methyl-pyrimidin-4-ylamino}-3H-benzooxazol-2-one] the pIC50 (Homo sapiens, T-cell) was over 6.30.

`Cc1cnc(Nc2ccc(OC(F)(F)F)c(Cl)c2)nc1Nc1ccc2oc(=O)[nH]c2c1` [Compound I-366, N2-(3-chloro-4-trifluoromethoxy)phenyl-5-methyl-N4-(2-oxo-2,3-dihydro-1,3-benzoxazol-5-yl)-2,4-pyrimidinediamine] showed a pIC50 of over 6.30.

For `CS(=O)(=O)Nc1ccc(Nc2ncc(F)c(Nc3ccc4[nH]c(=O)[nH]c4c3)n2)cc1` [Compound I-51, N2-(4-(methylsulfonylamino)phenyl)-N4-(1H-benzo[d]imidazol-2(3H)-on-5-yl)-5-fluoropyrimidine-2,4-diamine], the pIC50 (Homo sapiens, T-cell) was 5.30 to 6.30.

Work on `Cc1cnc(Nc2ccc(NCC3CC3)nc2)nc1Nc1ccc2oc(=O)[nH]c2c1` [II-74, 5-(2-(6-(cyclopropylmethylamino)pyridin-3-ylamino)-5-methylpyrimidin-4-ylamino)benzo[d]oxazol-2(3H)-one] yielded a pIC50 (Homo sapiens, T-cell) of over 6.30.

Compound `Cc1cnc(Nc2ccc(S(N)(=O)=O)cc2)nc1Nc1ccc2oc(=O)[nH]c2c1` [Compound I-15] has a pIC50 of over 6.30.

For `COc1cc(Nc2ncc(C)c(Nc3ccc4oc(=O)[nH]c4c3)n2)ccc1C` [Compound I-351, N2-(3-methoxy-4-methyl)phenyl-5-methyl-N4-(2-oxo-2,3-dihydro-1,3-benzoxazol-5-yl)-2,4-pyrimidinediamine], the pIC50 was over 6.30.

`Cc1cnc(Nc2cc(F)cc(Cl)c2)nc1Nc1ccc2oc(=O)[nH]c2c1` [Compound I-186, 5-[2-(3-Chloro-5-fluoro-phenylamino)-5-methyl-pyrimidin-4-ylamino]-3H-benzooxazol-2-one] showed a pIC50 (Homo sapiens, T-cell) of over 6.30.

`Cc1cnc(Nc2ccc(F)c(NS(C)(=O)=O)c2)nc1Nc1ccc2[nH]c(=O)oc2c1` [Compound I-105, N2-((4-fluoro-3-methylsulfonylamino)phenyl)-N4-(2-oxo-2,3-dihydrobenzo[d]oxazol-6-yl)-5-methylpyrimidine-2,4-diamine] was tested, and the pIC50 was under 5.00.

For `Cc1cnc(Nc2cnc(N3CCN4CCC3CC4)c(F)c2)nc1Nc1ccc2oc(=O)[nH]c2c1` [II-125, N2-[2-(1,4-diazabicylco[3.2.2]nonan-4-yl)-3-fluoropyridin-5-yl]-5-methyl-N4-(2-oxo-2,3-dihydro-1,3-benzoxazol-5-yl)-2,4-pyrimidinediamine], the pIC50 was over 6.30.

Reference: patent publication US10005767B2, “Compositions and methods for inhibition of the JAK pathway” (Rigel Pharmaceuticals, Inc., priority 2009, dated 2018)
